In PMC8347709 (International Journal of Molecular Sciences, 2021):

Tests used:
hCB2R(D80N) = biological target: T1, hCB2R(D80N) (Homo sapiens, UniProt P34972, D80N); test: PET in rat model with local overexpression of hCB2R(D80N) in the right striatum; assay type: in vivo; set-up: reduction of the AUC20–60min by displacement: concentration or dose not given beside the values; settings: for time to peak: TAC; for reduction of the AUC20–60min by displacement: GW405833 i.v. at 20 min p.i.; for change of AUC40–60min by displacement versus vehicle: GW405833 5 mg/kg i.v. 20 min after tracer
T1 construct: expressed in transfected cells; host or cells: rat striatal cells transduced in vivo with AAV2/7-CaMKII0.4-intron-hCB2R D80N
T1 sequence (P34972 whole entry D80N): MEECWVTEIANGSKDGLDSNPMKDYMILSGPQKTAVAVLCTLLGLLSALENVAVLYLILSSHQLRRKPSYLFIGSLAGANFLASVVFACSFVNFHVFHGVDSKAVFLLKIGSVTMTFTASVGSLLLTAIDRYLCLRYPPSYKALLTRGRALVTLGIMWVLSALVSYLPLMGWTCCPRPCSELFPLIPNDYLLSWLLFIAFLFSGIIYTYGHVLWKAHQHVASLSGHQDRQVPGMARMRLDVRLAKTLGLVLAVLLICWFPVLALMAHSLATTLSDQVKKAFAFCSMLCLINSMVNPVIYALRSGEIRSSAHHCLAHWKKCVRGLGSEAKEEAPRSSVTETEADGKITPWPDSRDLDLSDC
Excerpt: (§1) For the uptake studies into the spleen three male Wistar Hun rats (Janvier Laboratories, Le Genest Saint Isle, France) weighing 268 ± 56 g were used. For the uptake studies into the brain, five female Wistar rats weighing 263 ± 13 g carrying the stereotactically injected AAV 2/7-CaMKII0.4-intron-hCB2R D80N (right striatum) and AAV2/7-CaMKII0.4-intron-3flag-eGFP (contralateral, left striatum). Animals were initially anaesthetised with 5% isoflurane and placed on a thermostatically heated animal bed where anaesthesia was maintained with 2% isoflurane in 60% oxygen/38% room air. […] List-mode PET data were binned as a series of attenuation-corrected sinogram frames (12 × 10 s, 6 × 30 s, 5 × 60 s and 10 × 300 s) and were reconstructed by ordered subset expectation maximisation (OSEM3D) with four iterations, six subsets and a voxel size of 0.4 mm^3 (Nucline v2.01, Mediso, Hungary). The analysis of reconstructed datasets was performed with PMOD software (v4.103, PMOD Technologies LLC, Zurich, Switzerland). Non-parametrical analyses of achieved time-activity curves (TACs) were performed with Microsoft Excel to determine the time to peak, the TAC peak value and the area-under-the-zero-momentum curve (AUC):(1) AUC0−tx=∫0txcradioactivity × dt where c (radioactivity) is expressed as a standardised uptake value normalised to the bodyweight in g (SUV), the area-under-first-momentum curve (AUMC):(2) AUMC0−tx=∫0txt × cradioactivity × dt and the mean residence time (MRT):(3) MRT=AUMC0−tx/AUC0−tx

[1] = stability of the formulated product; assay type: physicochemical; settings: in saline, within 24 h at room temperature
Experimental: The purification of the product was performed by semipreparative HPLC (Figure 3), followed by trapping on a Sep-Pack C18-light cartridge and elution with EtOH. For biological experiments, the solvent was evaporated under a stream of nitrogen at 70 °C until a volume of about 20–30 µL remained. The product was formulated by using 280 µL saline (0.9% aqueous NaCl). The total synthesis time was about 70 min. […] A logD7.4 of 3.15 ± 0.25 was determined by the shake flask method, which is in accordance with the calculated cLogP of 3.0 (ChemDraw Professional 19.0).

[2] = biological target: T2, CB2R expression in the spleen (Rattus norvegicus, UniProt Q9QZN9); test: dynamic PET/MR of spleen uptake in healthy rats; assay type: in vivo, Wistar rats; settings: single blocking experiment, GW405833 1.5 mg/kg i.v. 10 min prior tracer
T2 construct: from tissue; host or cells: spleen of living male Wistar Hun rats (in vivo PET)
T2 sequence (Q9QZN9 1-360): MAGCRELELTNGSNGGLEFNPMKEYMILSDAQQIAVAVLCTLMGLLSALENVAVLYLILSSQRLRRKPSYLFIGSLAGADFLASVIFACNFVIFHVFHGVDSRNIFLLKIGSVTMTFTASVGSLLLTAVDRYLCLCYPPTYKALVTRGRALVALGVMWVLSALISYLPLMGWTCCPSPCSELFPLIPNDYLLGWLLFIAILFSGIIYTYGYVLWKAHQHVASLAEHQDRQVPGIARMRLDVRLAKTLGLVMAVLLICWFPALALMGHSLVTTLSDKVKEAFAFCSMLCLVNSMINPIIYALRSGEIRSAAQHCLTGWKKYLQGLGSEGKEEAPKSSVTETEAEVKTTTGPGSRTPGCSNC
Excerpt: as §1, with “The analysis of reconstructed datasets was performed with PMOD software (v4.103, PMOD Technologies LLC, Zurich, Switzerland).” left out, “MRT=AUMC0−tx/AUC0−tx […]” for “MRT=AUMC0−tx/AUC0−tx”

[3] = LogD7.4 by shake-flask method; assay type: physicochemical; settings: n-octanol/phosphate-buffered saline, n-octanol/PBS pH 7.4, room temperature
Experimental: The measurement was performed twice in triplicate.

hCB2R = hCB2R (Homo sapiens, UniProt P34972); test: homologous competition with [18F]LU14 on hCB2R-CHO cell membrane homogenates; assay type: binding; set-up: host or cells: CHO cells, stably transfected
hCB2R, sequence (P34972 whole entry): as the sequence (P34972 whole entry D80N) above, with N80D counted along it
Experimental: A value of 2.9 nM was experimentally determined. Next, the in vitro evaluation by autoradiography on spleen tissue was performed (Supplementary Figure S1), as the spleen is regarded as a suitable reference organ, having high densities of CB2R (rat spleen CB2R Bmax = 0.71 pmol/mg).
The inhibition curve was obtained by non-linear regression of percent specific binding (mean ±SD; one experiment run in triplicate) plotted versus the log concentration of the test compound.

[4] = hCB2R D80N-to-cerebellum, vehicle (10 min prior tracer), n = 3
[5] = hCB2R D80N-to-contralateral, vehicle (10 min prior tracer), n = 3
[6] = same rat model, comparator data ref 68

SMILES: C[C@H]1CC[C@@H](NC(=O)c2cc3cccnc3n(CCCC[18F])c2=O)CC1 [[^18F]LU14]
- time to peak (hCB2R(D80N); cerebellum): 1.6 ± 1.4 min
- time to peak (hCB2R(D80N); contralateral region): 3.8 ± 1.6 min
- time to peak (hCB2R(D80N); hCB2R(D80N) right striatum, rats, i.v., n = 3): 7.4 ± 2.8 min
- AUC (hCB2R(D80N); cerebellum): 41.1 ± 5.6 SUV × min
- AUMC (hCB2R(D80N); cerebellum): 819 ± 132 SUV × min^2
- MRT (hCB2R(D80N); cerebellum): 19.9 ± 1.2 min
- TAC peak value (hCB2R(D80N); cerebellum): 2.7 ± 0.0 SUV
- reduction of the AUC20–60min by displacement (hCB2R(D80N); compared to the cerebellum): 76%
- reduction of the AUC20–60min by displacement (hCB2R(D80N); compared to the contralateral region): 73%
- AUC (hCB2R(D80N); contralateral region): 42.6 ± 6.8 SUV × min
- AUMC (hCB2R(D80N); contralateral region): 854 ± 165 SUV × min^2
- MRT (hCB2R(D80N); contralateral region): 20.0 ± 1.1 min
- TAC peak value (hCB2R(D80N); contralateral region): 2.2 ± 0.4 SUV
- change of AUC40–60min by displacement versus vehicle (hCB2R(D80N); hCB2R D80N-to-cerebellum): −76.3%
- AUC40–60min (CI95%) (hCB2R(D80N); hCB2R D80N-to-cerebellum, displacement by GW405833 5 mg/kg i.v. 20 min after tracer, n = 2): 51 (42 to 60) SUVr × min
- AUC0–20min (CI95%) (hCB2R(D80N); hCB2R D80N-to-cerebellum, displacement group (GW405833 5 mg/kg i.v. 20 min after tracer), n = 2): 49 (40 to 59) SUVr × min
- AUC0–20min (CI95%) (hCB2R(D80N); [4]): 44 (39 to 48) SUVr × min
- AUC40–60min (CI95%) (hCB2R(D80N); [4]): 215 (190 to 241) SUVr × min
- change of AUC40–60min by displacement versus vehicle (hCB2R(D80N); hCB2R D80N-to-contralateral): −73.4%
- AUC40–60min (CI95%) (hCB2R(D80N); hCB2R D80N-to-contralateral, displacement by GW405833 5 mg/kg i.v. 20 min after tracer, n = 2): 56 (50 to 62) SUVr × min
- AUC0–20min (CI95%) (hCB2R(D80N); hCB2R D80N-to-contralateral, displacement group (GW405833 5 mg/kg i.v. 20 min after tracer), n = 2): 48 (41 to 54) SUVr × min
- AUC0–20min (CI95%) (hCB2R(D80N); [5]): 40 (37 to 42) SUVr × min
- AUC40–60min (CI95%) (hCB2R(D80N); [5]): 210 (190 to 231) SUVr × min
- AUC (hCB2R(D80N); hCB2R(D80N) right striatum): 155 ± 28 SUV × min
- AUMC (hCB2R(D80N); hCB2R(D80N) right striatum): 4349 ± 701 SUV × min^2
- MRT (hCB2R(D80N); hCB2R(D80N) right striatum): 28.0 ± 0.4 min
- TAC peak value (hCB2R(D80N); hCB2R(D80N) right striatum): 3.3 ± 0.6 SUV
- uptake in the brain region with CB2R overexpression compared to [11C]NE40 (hCB2R(D80N); [6]): about two-fold
- uptake in the brain region with CB2R overexpression compared to [18F]MA3 (hCB2R(D80N); [6]): about five-fold
- decomposition of the formulated product [1]: No decomposition
- AUC0–60min in the spleen, blocking versus control [2]: comparable
- logD [3]: 3.15 ± 0.25
- Kd (hCB2R): 2.9 nM
